Experimental data: patent US20220233512A1, “INHIBITING AN IMMUNE RESPONSE MEDIATED BY ONE OR MORE OF TLR2, RAGE, CCR5, CXCR4 AND CD4” (priority 2020, published 2022)

Target: T1, FLNA-TLR2 association (Homo sapiens, UniProt P21333)
T1 construct: Human postmortem frontal cortex slices; from tissue; host or cells: human postmortem frontal cortex slices
Experiment: FLNA-TLR2 association in human postmortem frontal cortex slices
Format: cell-based
Conditions: 1 or 10 nM compound; LTA-SA, PGN-SA or Ab42; p<0.01
Experimental: As will be seen from examination of FIG. 3 and FIG. 4, the ratio of TLR2 to FLNA increased with administration of each of LTA-SA, PGN-SA and Ab42 at a statistically significant amount relative to the control (p<0.01). Those changes in expression of TLR2 relative to FLNA were each inhibited by the presence of the 1 or 10 nM Compound C0105 at a statistically significant amount relative to the control (p<0.01) and relative to the ligand used. See, FIG. 3B.
Postmortem frontal cortex tissues were gradually thawed (from −80° C. to −20° C.) and were sliced using a chilled McIlwain tissue chopper ([…]). […]
The resultant immunocomplexes were pelleted by centrifugation at 4° C. […] The content of a7nAChRs in 50% of the obtained anti-Ab42 immunoprecipitate was determined by Western blotting with monoclonal anti-a7nAChR antibodies. […]
The content of b-actin in resultant immunoprecipitates is then analyzed by immunoblotting using monoclonal anti-b-actin to illustrate even immunoprecipitation efficiency and loading. […]

T1 sequence (P21333 2-2647 limits assumed): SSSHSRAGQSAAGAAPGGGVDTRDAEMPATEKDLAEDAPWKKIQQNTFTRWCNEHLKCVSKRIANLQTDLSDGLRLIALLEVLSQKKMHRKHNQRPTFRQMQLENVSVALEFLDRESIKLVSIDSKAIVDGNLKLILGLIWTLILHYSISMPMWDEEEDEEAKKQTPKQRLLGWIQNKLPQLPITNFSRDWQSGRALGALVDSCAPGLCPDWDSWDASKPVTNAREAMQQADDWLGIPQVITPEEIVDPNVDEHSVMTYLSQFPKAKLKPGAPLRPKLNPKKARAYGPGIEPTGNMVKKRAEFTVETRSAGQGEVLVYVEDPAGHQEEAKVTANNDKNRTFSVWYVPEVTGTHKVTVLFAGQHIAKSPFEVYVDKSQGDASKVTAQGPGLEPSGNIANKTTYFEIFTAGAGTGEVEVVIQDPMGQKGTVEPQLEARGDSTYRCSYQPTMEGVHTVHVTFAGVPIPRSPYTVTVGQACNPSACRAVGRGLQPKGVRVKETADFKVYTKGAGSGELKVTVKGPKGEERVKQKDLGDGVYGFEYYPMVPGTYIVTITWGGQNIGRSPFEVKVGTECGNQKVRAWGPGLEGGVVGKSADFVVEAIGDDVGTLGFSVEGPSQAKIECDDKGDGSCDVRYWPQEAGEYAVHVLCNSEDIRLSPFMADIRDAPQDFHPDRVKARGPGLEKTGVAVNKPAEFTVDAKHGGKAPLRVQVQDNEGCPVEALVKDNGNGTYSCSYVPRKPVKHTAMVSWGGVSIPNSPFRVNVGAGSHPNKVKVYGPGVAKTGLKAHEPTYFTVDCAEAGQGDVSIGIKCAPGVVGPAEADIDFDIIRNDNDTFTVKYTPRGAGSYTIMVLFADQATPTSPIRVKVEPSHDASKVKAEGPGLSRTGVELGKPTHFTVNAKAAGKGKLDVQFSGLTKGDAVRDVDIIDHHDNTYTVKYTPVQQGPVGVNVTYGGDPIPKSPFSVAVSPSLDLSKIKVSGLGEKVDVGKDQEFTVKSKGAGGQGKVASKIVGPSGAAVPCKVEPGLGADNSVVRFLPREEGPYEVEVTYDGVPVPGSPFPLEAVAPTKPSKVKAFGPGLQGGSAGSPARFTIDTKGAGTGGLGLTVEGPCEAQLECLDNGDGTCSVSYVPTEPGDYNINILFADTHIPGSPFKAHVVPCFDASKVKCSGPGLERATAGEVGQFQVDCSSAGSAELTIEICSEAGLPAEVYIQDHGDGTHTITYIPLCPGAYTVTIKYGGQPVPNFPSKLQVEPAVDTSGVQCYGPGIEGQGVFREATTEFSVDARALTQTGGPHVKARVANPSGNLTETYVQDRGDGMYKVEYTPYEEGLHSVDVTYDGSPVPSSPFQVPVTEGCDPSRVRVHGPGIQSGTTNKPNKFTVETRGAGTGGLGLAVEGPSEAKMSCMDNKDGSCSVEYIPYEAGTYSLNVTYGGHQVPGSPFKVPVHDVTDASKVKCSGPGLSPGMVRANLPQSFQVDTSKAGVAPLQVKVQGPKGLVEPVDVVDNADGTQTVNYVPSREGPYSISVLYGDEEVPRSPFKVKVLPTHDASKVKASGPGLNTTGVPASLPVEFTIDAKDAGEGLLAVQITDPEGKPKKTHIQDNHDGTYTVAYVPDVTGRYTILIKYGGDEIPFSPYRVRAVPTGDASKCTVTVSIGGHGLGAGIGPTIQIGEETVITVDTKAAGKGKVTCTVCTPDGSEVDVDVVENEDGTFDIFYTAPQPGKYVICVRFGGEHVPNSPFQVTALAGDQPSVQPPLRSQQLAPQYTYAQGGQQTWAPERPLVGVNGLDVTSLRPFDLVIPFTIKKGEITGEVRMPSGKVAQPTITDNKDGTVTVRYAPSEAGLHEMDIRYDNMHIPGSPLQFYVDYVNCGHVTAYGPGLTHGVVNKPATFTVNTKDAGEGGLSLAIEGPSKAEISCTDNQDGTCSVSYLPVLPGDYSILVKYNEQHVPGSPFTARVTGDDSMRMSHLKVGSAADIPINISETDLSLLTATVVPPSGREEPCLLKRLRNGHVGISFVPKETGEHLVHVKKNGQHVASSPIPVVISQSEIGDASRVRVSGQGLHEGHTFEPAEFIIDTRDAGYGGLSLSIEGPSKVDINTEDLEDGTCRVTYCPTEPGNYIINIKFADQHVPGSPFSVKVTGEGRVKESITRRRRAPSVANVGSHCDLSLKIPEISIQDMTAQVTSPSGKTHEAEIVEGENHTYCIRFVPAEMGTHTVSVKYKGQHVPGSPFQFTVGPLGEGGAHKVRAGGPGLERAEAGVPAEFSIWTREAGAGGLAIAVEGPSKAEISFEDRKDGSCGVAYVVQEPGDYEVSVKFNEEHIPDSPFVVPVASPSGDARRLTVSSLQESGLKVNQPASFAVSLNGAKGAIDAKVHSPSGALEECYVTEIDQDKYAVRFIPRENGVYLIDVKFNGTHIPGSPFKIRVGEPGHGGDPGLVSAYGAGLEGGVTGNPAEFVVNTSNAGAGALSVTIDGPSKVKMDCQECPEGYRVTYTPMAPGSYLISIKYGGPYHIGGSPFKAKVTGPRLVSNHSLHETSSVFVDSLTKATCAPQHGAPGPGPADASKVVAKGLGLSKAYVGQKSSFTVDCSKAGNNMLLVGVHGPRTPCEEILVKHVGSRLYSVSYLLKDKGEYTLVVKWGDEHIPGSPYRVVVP

**Q.** Which “Ligand-induced change in TLR2 relative to FLNA (TLR2/FLNA ratio)” value does the source give for `CN1CCC2(CC1)NCC(=O)N2Cc1ccccc1` [Compound C0105M] here?
**A.** inhibited
